Measured values published in patent US20210392889A1, “COMPOSITIONS COMPRISING PYRIDINE CARBOXYLATE HERBICIDES WITH PDS INHIBITOR HERBICIDES” (Corteva Agriscience LLC, priority 2018, published 2021).

Columns and labels:
spring wheat (TRZAS) = assay: Greenhouse postemergence phytotoxicity on crop, visual injury after 20-22 d; format: in vivo, Triticum aestivum; settings: for visual injury: Table 1
From the text: (§1) Seeds of the desired test plant species were planted in a 90:10% v/v (volume/volume) mixture of PRO-MIX® BX (Premier Tech Horticulture, Quakertown, Pa., USA) and PROFILE® GREENS GRADE™ (Profile Products LLC, Buffalo Grove, Ill., USA) planting mixture, which typically has a pH of 5.2 to 6.2 and an organic matter content of at least 50 percent, in plastic pots with a surface area of 103.2 square centimeters (cm^2). In some aspects, to ensure good germination and healthy plants, a fungicide treatment and/or other chemical or physical treatment was applied. The plants were grown for 7-36 days (d) in a greenhouse with an approximate 14-hour (h) photoperiod which was maintained at about 23° C. during the day and 22° C. during the night. Nutrients and water were added on a regular basis and supplemental lighting was provided with overhead metal halide 1000-Watt lamps as necessary. The plants were employed for testing when they reached the second or third true leaf stage.
(§2) Emulsifiable concentrates of each of each pyridine carboxylate herbicide (Compound A or Compound B) were prepared at 100 grams acid equivalent per liter (g ae/L). The emulsifiable concentrates also included a safener, cloquintocet-mexyl, at 120 grams active ingredient per liter (g ai/L). An aliquot of each emulsifiable concentrate was placed in a 25 mL glass vial and diluted with an aqueous mixture of 1.25% (v/v) ACTIROB® B esterified rapeseed oil (Bayer Crop Science, Research Triangle Park, N.C., USA) or MSO® Concentrate with LECI-TECH® methylated soybean oil (Loveland Products, Loveland, Colo., USA) to obtain concentrated stock solutions at the highest application rate for each herbicide, based upon a 12 milliliter (mL) application volume at a rate of 187 liters per hectare (L/ha). The concentrated stock solutions were further diluted with an aqueous mixture of 1.25% v/v ACTIROB® B or MSO® Concentrate with LECI-TECH® to obtain stock solutions at reduced application rates for each herbicide. Spray solutions of the herbicide combinations (Compound A or Compound B plus PDS inhibitor herbicide) were prepared by adding weighed amounts or aliquots of the PDS inhibitor herbicide to the stock solutions of Compound A or Compound B to form 12-mL spray solutions in two- or three-way combinations.
(§3) The spray solutions were applied to the plant material with an overhead Mandel track sprayer equipped with 8002E nozzles calibrated to deliver 187 L/ha over an application area of 0.503 square meters (m^2) at a spray height of 18 inches ([…] centimeters (cm)) above the average plant canopy. Control plants were sprayed in the same manner with the solvent blank. All pyridine carboxylate herbicide (component a) application rates are given as “g ae/ha” and all PDS inhibitor herbicide (component b) application rates are given as “g ai/ha.”
(§4) The treated plants and control plants were placed in a greenhouse as described above and watered by sub-irrigation to prevent wash-off of the test compounds. After 20-22 d, the condition of the test plants as compared with that of the control plants was determined visually and scored on a scale of 0 to 100 percent where 0 corresponds to no injury and 100 corresponds to complete kill.

spring barley (HORVS) = assay: as above; format: in vivo, Hordeum vulgare; settings: for visual injury: Table 1
From the text: as §1, §2, §3, §4

N#CCOC(=O)c1nc(-c2ccc3cc[nH]c3c2F)c(F)c(N)c1Cl [Compound A, cyanomethyl 4-amino-3-chloro-5-fluoro-6-(7-fluoro-1H-indol-6-yl)pyridine-2-carboxylate]
visual injury (spring wheat (TRZAS); 7.5 g/ha): 0% | visual injury Obs (spring wheat (TRZAS); 7.5 g/ha, Table 2): 0% | visual injury Obs (spring wheat (TRZAS); 7.5 g/ha, Table 3): 0% | visual injury Obs (spring wheat (TRZAS); 7.5 g/ha, Table 5): 0% | visual injury Obs (spring wheat (TRZAS); 7.5 g/ha, Table 6): 0% | visual injury Obs (spring wheat (TRZAS); 7.5 g/ha, Table 7): 0% | visual injury Obs (spring wheat (TRZAS); 7.5 g/ha, Table 8): 3% | visual injury (spring wheat (TRZAS); 10 g/ha): 0% | visual injury Obs (spring wheat (TRZAS); 10 g/ha, Table 2): 0% | visual injury Obs (spring wheat (TRZAS); 10 g/ha, Table 3): 0% | visual injury Obs (spring wheat (TRZAS); 10 g/ha, Table 5): 0% | visual injury Obs (spring wheat (TRZAS); 10 g/ha, Table 6): 0% | visual injury Obs (spring wheat (TRZAS); 10 g/ha, Table 7): 0% | visual injury Obs (spring wheat (TRZAS); 10 g/ha, Table 8): 3% | visual injury Obs (spring wheat (TRZAS); 15 g/ha, Table 8): 0% | visual injury (spring barley (HORVS); 7.5 g/ha): 0% | visual injury Obs (spring barley (HORVS); 7.5 g/ha, Table 2): 8% | visual injury Obs (spring barley (HORVS); 7.5 g/ha, Table 3): 0% | visual injury Obs (spring barley (HORVS); 7.5 g/ha, Table 7): 0% | visual injury Obs (spring barley (HORVS); 7.5 g/ha, Table 8): 8% | visual injury (spring barley (HORVS); 10 g/ha): 0% | visual injury Obs (spring barley (HORVS); 10 g/ha, Table 2): 0% | visual injury Obs (spring barley (HORVS); 10 g/ha, Table 3): 0% | visual injury Obs (spring barley (HORVS); 10 g/ha, Table 7): 0% | visual injury Obs (spring barley (HORVS); 10 g/ha, Table 8): 5% | visual injury Obs (spring barley (HORVS); 15 g/ha, Table 8): 3%
